TGI and GI50 data for 12 compounds are collected here from PubChem BioAssay (NCI).

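Where inhibition never reached the appropriate level, the endpoint shown equals the highest concentration tested. Otherwise, values were interpolated linearly from a five-concentration, 48-hour dose response in 96-well plates. GI50 = concentration required for 50% inhibition of growth. Definition used: TGI = concentration required for complete inhibition of growth.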 Where only a bound is given, the exact number is not on record here.

Common to all, as to test: DTP human tumour cell line panel, 48 h
The subject of experiment [1] is IGROV1 ovarian.
Experiment [2] relates to NCI-H23 lung.
Experiment [3] deals with OVCAR-4 ovarian.
Experiment [4] relates to OVCAR-8 ovarian.
Experiment [5] deals with RXF 393 renal.
Experiment [6] deals with SK-MEL-5 melanoma.
Experiment [7] has as its system UACC-257 melanoma.
Experiment [8] deals with SR leukemia.

Broadly, the TGI is the concentration at which net growth stops. The term GI50 denotes the concentration at which growth is held to half of that of the control.

`O=C1c2ccccc2-c2oc(=O)c3ccccc3c21`: the TGI in experiment [1], in experiment [2], in experiment [3], in experiment [4], in experiment [5] and in experiment [6] was more than 100 µM throughout. In experiment [7], this compound gave a TGI of more than 100 µM.
Regarding `N#CC1=C(N)Oc2c(ccc3ccccc23)C1c1ccccc1` (stereo not given), the GI50 in experiment [1] was 0.0654 µM; in experiment [2], 0.0648 µM; in experiment [3], 0.063 µM; in experiment [4] it was 0.0551 µM; in experiment [6], 0.0346 µM; in experiment [8] it was 33.6 nM. For the same compound, in experiment [7], the GI50 is 11.9 µM. For the same compound, the total growth inhibition concentration (TGI) in experiment [1] is 16.9 µM; in experiment [2], 16.9 µM; in experiment [3] it was 14.5 µM; in experiment [4], 16.8 µM; in experiment [6] it was 0.451 µM; in experiment [8], 22.4 µM. Besides, the TGI in experiment [7] was determined as 29.9 µM.
Regarding `Cc1cc(-c2nc3sccn3c2/C=N/N=C(N)N)c(C)s1`, the GI50 in experiment [2] is 17.7 µM; in experiment [3], 16.2 µM; in experiment [4], 29.4 µM; in experiment [6], 14.6 µM; in experiment [7], 18.9 µM. Moreover, the concentration for total growth inhibition (TGI) came out at 33.7 µM in experiment [2]; 35.3 µM in experiment [3]; 57 µM in experiment [4]; 30 µM in experiment [6]; 36.2 µM in experiment [7].
`Cc1cc(O)cc2c1[C@]1(C)CCC3C(C)(C)CCC[C@]3(C)[C@H]1C2` (stereo not given in full): the GI50 in experiment [1] is 20.5 µM; in experiment [2], 22.5 µM; in experiment [3], 17.5 µM; in experiment [4] it was 26.1 µM; in experiment [5], 25 µM; in experiment [6], 19.1 µM. In experiment [7], the GI50 was 23.6 µM. The concentration for total growth inhibition (TGI) in experiment [1] came out at 36.9 µM; in experiment [2], 42 µM; in experiment [3] it was 33.8 µM; in experiment [4], 54.8 µM; in experiment [5] it was 50.4 µM; in experiment [6], 33.2 µM. In experiment [7], this compound displayed a TGI of 41.3 µM.
As for `O=S(=O)(NCCCNc1nccc(-c2c(-c3ccc(F)c(O)c3)nc3sccn23)n1)c1ccc(F)cc1`, the GI50 was 1.51 µM in experiment [1]; 2.31 µM in experiment [2]; 2.3 µM in experiment [4]; 1.53 µM in experiment [5]; 1.42 µM in experiment [6]; 2130 nM in experiment [8]. For the same compound, the GI50 in experiment [7] is 0.262 µM. In addition, the TGI in experiment [1] is 5.88 µM; in experiment [2], 7.39 µM; in experiment [4], more than 100 µM; in experiment [5], 4.68 µM; in experiment [6] it was 2.8 µM; in experiment [8] it was more than 100 µM. The same compound came in with a TGI in experiment [7] of 2.19 µM.
Consider `C#CC1(OC(C)=O)CCC2C3CC=C4C=C(OC(C)=O)CCC4(C)C3CCC21C` (stereo not given), for which the TGI in experiment [1] came out at 35.9 µM; in experiment [2] it was 47.1 µM; in experiment [3], 72.2 µM; in experiment [4], 46.3 µM; in experiment [6], 34.1 µM; in experiment [8], 35 µM. Also, the TGI in experiment [7] worked out at 35.3 µM.
Take `CC(=Nc1ccccc1)C1=C(O)C(Cc2ccc(O)cc2)NC1=O` (stereo not given): the GI50 is 0.232 µM in experiment [1]; 0.139 µM in experiment [2]; 0.385 µM in experiment [3]; 0.255 µM in experiment [4]; 0.0512 µM in experiment [6]; 28.3 nM in experiment [8]. In addition, in experiment [7], the GI50 was more than 100 µM. The TGI in experiment [2] was more than 100 µM; in experiment [3] it was more than 100 µM; in experiment [4] it was more than 100 µM; in experiment [6] it was 2.37 µM; in experiment [7], more than 100 µM.
For `COc1ccc(/C(COc2ccc3c(=O)c(-c4ccccc4)coc3c2)=N\O)cc1`, the GI50 is 7.37 µM in experiment [1]; 19.3 µM in experiment [2]; 16.1 µM in experiment [3]; 12.1 µM in experiment [4]; 7.81 µM in experiment [5]; 0.394 µM in experiment [6]. Moreover, the GI50 in experiment [7] was 17.9 µM. Besides, the TGI in experiment [1] was 38.3 µM; in experiment [2], 62.8 µM; in experiment [3], more than 100 µM; in experiment [4], 64.3 µM; in experiment [5] it was more than 80.7 µM; in experiment [6], 4.74 µM. The compound further showed a TGI in experiment [7] of more than 60 µM.
Consider `CNC(=S)NC(=O)c1c(Cl)n(C(=O)OC(C)(C)C)c2ccccc12`, for which the GI50 in experiment [1] is 21 µM; in experiment [2], 53.1 µM; in experiment [3] it was more than 100 µM; in experiment [4], 89.1 µM; in experiment [5] it was 48.5 µM; in experiment [6], 28.1 µM. In addition, the GI50 in experiment [7] was 94.5 µM. The TGI in experiment [1], in experiment [2], in experiment [3], in experiment [4], in experiment [5] and in experiment [6] was more than 100 µM throughout. Also, the TGI in experiment [7] was more than 100 µM.
For `c1cc(N2CCCN(c3ccc(C4=NCCCN4)cc3)CC2)ccc1C1=NCCCN1`, the GI50 in experiment [1] is more than 100 µM; in experiment [2], more than 100 µM; in experiment [3], more than 100 µM; in experiment [4], more than 100 µM; in experiment [5] it was more than 100 µM; in experiment [6], 46.6 µM. Besides, the GI50 in experiment [7] was more than 100 µM. Besides, the TGI in experiment [1], in experiment [2], in experiment [3], in experiment [4], in experiment [5] and in experiment [6] was more than 100 µM each time. The same compound had a TGI in experiment [7] of more than 100 µM.
In the case of `O=C(O)c1ccc(Oc2nccc(-c3c(-c4ccc(F)cc4)ncn3C3CCNCC3)n2)cc1`, the GI50 in experiment [1], in experiment [3], in experiment [4], in experiment [5] and in experiment [6] was more than 25 µM throughout. In addition, the TGI in experiment [1], in experiment [3], in experiment [4], in experiment [5] and in experiment [6] was more than 25 µM throughout.
As to `O=C1NC(=O)C(c2ccccc2Cl)=C1Nc1cc(Cl)c(O)c(Cl)c1`, the GI50 in experiment [1] was more than 25 µM; in experiment [3] it was 13.7 µM; in experiment [4] it was 17.6 µM; in experiment [5], 5.98 µM; in experiment [6], 11.7 µM. Besides, the TGI in experiment [1] is more than 25 µM; in experiment [3], more than 25 µM; in experiment [4] it was more than 25 µM; in experiment [5] it was more than 23.5 µM; in experiment [6], more than 25 µM.
